“And” between values parts separate entries of the source, which are not always exact repeats. Equal values may be shown once.
Assays:
[1] = Accumulation of metals in liver and kidney tissues, intact rats; format: in vivo; conditions: day 1 and day 7 after discontinuation; intraperitoneal
Experimental: The total kidney, liver and muscle homogenates were prepared as follows. Organ excision and homogenization were carried out at a temperature of 1-4°C. Homogenization of tissues was carried out in 50 mM Tris-HCl buffer (pH 7.4) which contained 140 mM NaCl, 1 mM EDTA. The volume of the used buffer in ml was 5 times larger than the mass of isolated organs in grams. The isolated liver was perfused with chilled saline (0.9% NaCl) via the portal vein using a syringe. The minced liver was transferred to a homogenizer with a finely ground Teflon pestle and homogenized in chilled buffer. An isolated pair of kidneys was perfused with chilled saline, released from adipose tissue and minced with scissors. The minced tissue was transferred to a homogenizer with a finely ground Teflon pestle and homogenized in chilled buffer. The total kidney and liver homogenates were centrifuged at 600 g for 15 minutes. The liquid was decanted after the mince settled down and was centrifuged again at 15,000 g for 15 minutes. These two procedures allowed us to get rid of nuclear and mitochondrial debris. Aliquots of the prepared homogenates were frozen in nitrogen (Rybalchenko V.K., Koganov M.M. Structure and function of membrane 1988. - 312 pp).

[2] = Glucose tolerance test; conditions: dose 5 mg/kg in a volume of 2 ml, individual animals 1-5
Experimental: Animals that had access only to water 16 hours before the start of the experiment were used in the glucose tolerance test. Rats were anesthetized with intraperitoneal injection of sodium thiopental at a dose of 40 mg/kg. 5 animals were used within the same experimental group. Basal levels of glycaemia were determined in rats, after which the animals were fed 2 ml of aqueous glucose solution at a dose of 3 g/kg. The concentration of glucose was determined 60 minutes after the start of the experiment.
A glucose tolerance test was performed to determine a potential effect of zinc isotope on the dynamics of glucose concentration in the blood flow. Experimental procedure: laboratory animals are given intragastric injections of either normal saline solution or zinc in saline solution (5 mg/kg) in a volume of 2 ml. After that, 60 minutes after the aforementioned injections, the basal level of glucose is measured and a glucose solution is injected in an amount of 3 g/kg in a volume of 2 ml using the same route of administration. The blood glucose levels are measured again 60 minutes after injecting the glucose solution.

[3] = system: IL-1; assay: Cytokine profile, immunoenzyme method, obesity model: IL-1; conditions: Table 7, serum
Experimental: (§1) Adipose tissue was crushed using cold scissors then transferred to a homogenizer with a loose-fitting Teflon pestle. The tissue was homogenized using approximately 30 strokes of the pestle in cold homogenization buffer (50 mM Tris-HCl (pH 7.4) containing 130 mM NaCl). Primary homogenate thus obtained was centrifuged at 600 g for 15 minutes. The supernatant was carefully collected and re-centrifuged at 15,000 g for 15 minutes. The supernatant was then frozen and stored at -80°C until the experiments.
(§2) The levels of insulin, interleukins and adipokines were determined using immunoenzyme method (Halenova TI et al. RSC Adv. 2016;6: 100046-55), which was carried out in microplates with a sorption capacity in accordance with the soluble protein test procedure. The antigen solution, previously diluted with 0.1 M NaHCOs buffer, pH 9.6, to a concentration of 10 µg/ml, was incubated in the plate wells for 12 hours at 4°C. Unbound material was removed by washing the wells three times with TBS buffer, first with 0.05% Tween-20, then without Tween-20. Non-specific binding sites were blocked by adding a solution of 5% skim milk or a solution of 1% bovine serum albumin to the plate wells and incubating them for 60 minutes at 37°C. […]
(§3) The absorbance at a wavelength of 492 nm was measured using a µQuant microplate spectrophotometer (BioTek Instruments).

[4] = system: IL-6; assay: Cytokine profile, immunoenzyme method, obesity model: IL-6; conditions: Table 7, serum
Experimental: as §1, §2, §3

[5] = system: TGF; assay: Cytokine profile, immunoenzyme method, obesity model: TGF; conditions: Table 7, serum
Experimental: as §1, §2, §3

[6] = Anthropometric values and food consumption, high-fat diet induced obesity model; conditions: Table 3
Source text: Before the start of the experiment, animals were maintained on a standard diet of the vivarium. To induce obesity in experimental animals, they were fed high-fat diet which consisted of standard feed (60%), lard (10%), chicken eggs (10%), sucrose (9%), peanuts (5%), dry milk (5%) and sunflower oil (1%) (1%) (see X. H. Shen et al., Exp. Biol. and Med. 235: 47-51 (2010)).
Animals in all groups were weighed once a week after an overnight fast. The amount of feed to be consumed by the animals was determined daily. At the end of a 10-week period of the development of obesity models, 24 hours after the last administration of the zinc isotope solution, animals were removed from their cages and decapitated.
The body mass index (BMI) (the ratio of body weight (g) to the square of body length (cm^2)) was calculated at the end of the experiment.
Animals with an initial weight of 195-205±10 g maintained on the standard diet of the vivarium before performing obesity models were used in the experiments. To induce obesity in experimental animals, they were fed high-fat diet which consisted of standard feed (60%), lard (10%), chicken eggs (10%), sucrose (9%), peanuts (5%), dry milk (5%) and sunflower oil (1%), Shen X. et al., Experimental Biology and Medicine. - 2010. - Nº 235. - P. 47-51.
Animals in all groups were weighed once a week after an overnight fast. The amount of feed to be consumed by the animals was determined daily.
The body mass index (BMI) (the ratio of body weight (g) to the square of body length (cm2)) was calculated at the end of the experiment.

[7] = system: IFN-γ; assay: Cytokine profile, immunoenzyme method, obesity model: IFN-γ; conditions: Table 7, serum
Experimental: as §1, §2, §3

[8] = system: glycated hemoglobin; assay: Glycated hemoglobin, streptozotocin-induced type I diabetes model; conditions: Table 22; streptozotocin diabetic rats; 800 µg of zinc per animal orally, 7 doses; n = 10
Experimental: The levels of glycated hemoglobin in whole blood of rats was measured spectrophotometrically in accordance with the established procedure. The assay was performed using a standard assay kit manufactured by Lachema (Czech Republic).
The method for glycated hemoglobin measurement is based on the fact that the stable form of glycohemoglobin (HbA1c) contains 1-deoxy-1-(N-valyl) fructose, which is dehydrated with phosphoric acid to form a colored complex with an absorption spectrum at 433 nm. Neither the labile form of glycohemoglobin nor fetal hemoglobin interferes with the determination of glycated hemoglobin.
Total hemoglobin was measured spectrophotometrically. […] The absorbance was read at a wavelength of 540 nm against the transforming solution. The total hemoglobin fraction was calculated according to the manufacturer's recommendations using the following formula: Hb = (A∗367,7)/(4,92) [formula] where Hb is total hemoglobin, A is optical density of the test sample. […]
Hemolysate was prepared by adding an anticoagulant, 3.8% solution of Na citrate diluted at 1:10, to freshly collected blood. […] The optical density of the samples was measured on a spectrophotometer at a wavelength of 443 nm against distilled water. […]
Concentration of glycohemoglobin was expressed as µmols of fructose per g of hemoglobin (Glycated hemoglobin / Assay kit // Pliva-lachema diagnostica. - 2008. - 10003258.).

[9] = system: IL-4; assay: Cytokine profile, immunoenzyme method, obesity model: IL-4; conditions: Table 7, serum
Experimental: as §1, §2, §3

[10] = system: collagen fibers; assay: Morphometric analysis of liver fibrosis, Van Gieson staining, obesity model; conditions: rats eating a standard diet, treated
Experimental: To carry out a histochemical reaction to determine the level of liver fibrosis, Van Gieson's picro-fuchsin method of staining was used. To do this, the sections were first soaked with water and then re-stained with Bömer's hematoxylin for 3-4 minutes. The sections were then rinsed in distilled water and stained with Van Gierson's picro-fuchsin for 3 minutes. Once stained, the sections were rinsed in distilled water, dehydrated in 96% alcohol, cleared in dioxane and xylene, and enclosed in a balsam under a coverslip. […] All parameters were measured using ImageJ software.

[11] = Blood glucose, streptozotocin-induced type I diabetes model, oral administration; conditions: Table 22; streptozotocin diabetic rats; 800 µg of zinc per animal orally, 7 doses every other day; n = 10
Experimental: Number of animals: 10 (males). Animals were housed in cages, 4 per cage, and provided ad libitum access to food and water. To induce diabetes in animals, each animal was given a single injection of streptozotocin solution at a dose of 6 mg per 100 g of animal weight dissolved in 10 mM citrate buffer (pH 4.5) intraperitoneally. The fasted animals were tested for sufficient levels of glycemia two days after induction of diabetes. Rats with blood glucose concentrations within the range >20 mmol/l were used in the experiments.
24 hours later, 7 doses of the test substance were administered to the animals orally. Frequency of administration - every other day.
Dose of administration - 800 µg of zinc per animal.
The glucose concentration in whole blood was measured by the glucose oxidase method using a GlucoDr Auto AGM-4000 blood glucose meter (Allmedicus Co., Ltd., Korea). All procedures were performed according to the manufacturer's instructions
Type I experimental diabetes was induced by a single intraperitoneal injection of streptozotocin solution at a dose of 6 mg per 100 g of animal weight dissolved in 10 mM citrate buffer (pH 4.5). The rats of the control group were administered 10 mM citrate buffer (pH 4.5) by the aforementioned method. The whole blood glucose concentrations were measured two days after induction of diabetes in rats.

[12] = C+zinc: control rats, standard diet
[13] = DIO+zinc: diet-induced obesity rats

Question: With `CC(=O)[O-].CC(=O)[O-].[Zn+2]` [Zn acetate, Zn acetate (Zn(CH3COO)2), reference compound] as the molecule, how does the “accumulation of other metals (manganese, copper) in kidney and liver tissues” value [1] read?
Answer: within the same concentrations as in the control group of animals

Question: And the “accumulation of zinc in kidney and liver tissues” value [1]?
Answer: significantly increased

Question: And the “60 min (1 h after glucose administration)” value ([2]; Table 2, blood glucose after glucose 3 g/kg)?
Answer: 7,2 (2×) and 6,9 and 7,3 and 6,8

Question: What about the “0 min (1 h after effector administration)” value ([2]; Table 2, blood glucose before glucose load, fast overnight) of the same molecule?
Answer: 4,6 and 5,2 (2×) and 4,9 and 5,1

Question: With Zinc asparaginate [^64Zne] as the molecule, how does the “Levels, Pro-inflammatory cytokines, IL-1” value ([3]; C+^64Zne: control rats) read?
Answer: 3.5±0.7 RU/mg protein

Question: What about the “Levels, Pro-inflammatory cytokines, IL-1” value ([3]; DIO+^64Zne: diet-induced obesity rats) of the same molecule?
Answer: 4.2±0.4 RU/mg protein

Question: And the “Levels, Pro-inflammatory cytokines, IL-6” value ([4]; C+^64Zne)?
Answer: 4.3±0.2 RU/mg protein

Question: And the “Levels, Pro-inflammatory cytokines, IL-6” value ([4]; DIO+^64Zne)?
Answer: 5.1±0.4 RU/mg protein

Question: And the “Levels, Anti-inflammatory cytokines, TGF” value ([5]; C+^64Zne)?
Answer: 4.1±0.4 RU/mg protein

Question: What about the “Levels, Anti-inflammatory cytokines, TGF” value ([5]; DIO+^64Zne) of the same molecule?
Answer: 5.7±0.3 # RU/mg protein

Question: What about the “accumulation of other metals (manganese, copper) in kidney and liver tissues” value [1] of the same molecule?
Answer: within the same concentrations as in the control group of animals

Question: And the “accumulation of zinc in kidney and liver tissues” value [1]?
Answer: significantly increased

Question: And the “Amount of food consumed” value [6, 12]?
Answer: 32 g/day

Question: And the “Calorie content of food” value [6, 12]?
Answer: 490 kJ/day

Question: What about the “Weight gain as of the end of the experiment” value [6, 12] of the same molecule?
Answer: 59%

Question: And the BMI ([6]; C+zinc: control rats, standard diet, ^64Zne administration)?
Answer: 0.59 g/cm^2

Question: And the “Amount of food consumed” value [6, 13]?
Answer: 29 g/day

Question: What about the “Calorie content of food” value [6, 13] of the same molecule?
Answer: 823 kJ/day

Question: And the “Weight gain as of the end of the experiment” value [6, 13]?
Answer: 62%

Question: And the BMI ([6]; DIO+zinc: diet-induced obesity rats, ^64Zne 2.25 mg/ml, 2 ml intragastrically every third day, 10th week)?
Answer: 0.65 g/cm^2

Question: And the “Levels, Pro-inflammatory cytokines, IFN-γ” value ([7]; C+^64Zne)?
Answer: 4.6±0.6 RU/mg protein

Question: And the “Levels, Pro-inflammatory cytokines, IFN-γ” value ([7]; DIO+^64Zne)?
Answer: 4.1±1.2 RU/mg protein

Question: And the Glycated hemoglobin [8]?
Answer: 0,51 ± 0,05 µmol fructose/g Hb

Question: What about the “Levels, Anti-inflammatory cytokines, IL-4” value ([9]; C+^64Zne) of the same molecule?
Answer: 4.6±0.8 RU/mg protein

Question: And the “Levels, Anti-inflammatory cytokines, IL-4” value ([9]; DIO+^64Zne)?
Answer: 5.6±1.6 RU/mg protein

Question: What about the “increase in the area of deposition of collagen fibers” value [10] of the same molecule?
Answer: 2 fold

Question: And the Glucose [11]?
Answer: 20 ± 3 mM

— patent publication EP4076431B1, “COMPOSITION AND METHOD FOR THE PREVENTION AND TREATMENT OF TYPE 2 DIABETES” (Vector Vitale IP LLC, priority 2019, dated 2021)
